# Test results reported in US9738634B2, “Heterocyclic amide compound and herbicide” (SYNGENTA PARTICIPATIONS AG, priority 2013, dated 2017).
# Key:
# Type in all cases: in vivo
# barnyard grass [1] = test: Test Example 1: weedkilling efficacy, preemergent weed treatment in the submerged state; A: barnyard grass; conditions: treatment dosage 252 g/ha
# Outline: (§1)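 Pots of alluvial soil were flooded to a 4 cm depth. Mixed weed seeds were sown and 2.5 leaf-stage rice seedlings transplanted. On sowing day, water-diluted emulsion was applied to the water surface (dose in g/ha). After 3 weeks at 25–30 °C, effects were rated.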
# bulrush [2] = test: Test Example 1: weedkilling efficacy, preemergent weed treatment in the submerged state; B: bulrush; conditions: treatment dosage 252 g/ha
# Outline: as §1
# oval-leafed pondweed [3] = test: Test Example 1: weedkilling efficacy, preemergent weed treatment in the submerged state; C: oval-leafed pondweed; conditions: treatment dosage 252 g/ha
# Outline: as §1
# transplanted rice = test: Test Example 1: preemergent weed treatment in the submerged state, effect on crop; a: transplanted rice; conditions: treatment dosage 252 g/ha
# Outline: as §1
# barnyard grass [4] = test: Test Example 2: weedkilling efficacy, growth period weed treatment in the submerged state; A: barnyard grass; conditions: treatment dosage 252 g/ha
# Outline: (§2)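 Weeds treated at the 1-2 leaf stage by application of diluted emulsion onto floodwater (4 cm depth, alluvial soil) at specified g/ha. Grown in greenhouse at 25 to 30° C; herbicidal effect rated three weeks after treatment.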
# bulrush [5] = test: Test Example 2: weedkilling efficacy, growth period weed treatment in the submerged state; B: bulrush; conditions: treatment dosage 252 g/ha
# Outline: as §2
# oval-leafed pondweed [6] = test: Test Example 2: weedkilling efficacy, growth period weed treatment in the submerged state; C: oval-leafed pondweed; conditions: treatment dosage 252 g/ha
# Outline: as §2
# crabgrass [7] = test: Test Example 3: weedkilling efficacy through soil treatment; D: crabgrass; conditions: treatment dosage 315 g/ha
# Outline: (§3)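 Crop and weed responses were judged three weeks after a uniform surface spray of the water-diluted emulsion at the given g/ha rate. Seeds sat beneath about 1.5 cm of sterilized diluvial soil, and boxes stood in a greenhouse at 25 to 30° C.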
# green foxtail [8] = test: Test Example 3: weedkilling efficacy through soil treatment; E: green foxtail; conditions: treatment dosage 315 g/ha
# Outline: as §3
# wild oat [9] = test: Test Example 3: weedkilling efficacy through soil treatment; G: wild oat; conditions: treatment dosage 315 g/ha
# Outline: as §3
# black-grass [10] = test: Test Example 3: weedkilling efficacy through soil treatment; H: black-grass; conditions: treatment dosage 315 g/ha
# Outline: as §3
# Italian ryegrass [11] = test: Test Example 3: weedkilling efficacy through soil treatment; I: Italian ryegrass; conditions: treatment dosage 315 g/ha
# Outline: as §3
# Indian mallow [12] = test: Test Example 3: weedkilling efficacy through soil treatment; K: Indian mallow; conditions: treatment dosage 315 g/ha
# Outline: as §3
# redroot pigweed [13] = test: Test Example 3: weedkilling efficacy through soil treatment; L: redroot pigweed; conditions: treatment dosage 315 g/ha
# Outline: as §3
# fig-leafed goosefoot [14] = test: Test Example 3: weedkilling efficacy through soil treatment; M: fig-leafed goosefoot; conditions: treatment dosage 315 g/ha
# Outline: as §3
# chickweed [15] = test: Test Example 3: weedkilling efficacy through soil treatment; N: chickweed; conditions: treatment dosage 315 g/ha
# Outline: as §3
# birds-eye speedwell = test: Test Example 3: weedkilling efficacy through soil treatment; p: birds-eye speedwell; conditions: treatment dosage 315 g/ha
# Outline: as §3
# directly sown rice [16] = test: Test Example 3: soil treatment, effect on crop; b: directly sown rice; conditions: treatment dosage 315 g/ha
# Outline: as §3
# corn [17] = test: Test Example 3: soil treatment, effect on crop; c: corn; conditions: treatment dosage 315 g/ha
# Outline: as §3
# soybean [18] = test: Test Example 3: soil treatment, effect on crop; d: soybean; conditions: treatment dosage 315 g/ha
# Outline: as §3
# wheat [19] = test: Test Example 3: soil treatment, effect on crop; e: wheat; conditions: treatment dosage 315 g/ha
# Outline: as §3
# beet [20] = test: Test Example 3: soil treatment, effect on crop; f: beet; conditions: treatment dosage 315 g/ha
# Outline: as §3
# crabgrass [21] = test: Test Example 4: weedkilling efficacy by foliar treatment; D: crabgrass; conditions: treatment dosage 315 g/ha
# Outline: (§4)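 Seeds are spot-sown into sterilized diluvial soil and covered with about 1.5 cm of soil. After 14 days' greenhouse growth at 25 to 30° C, plants are sprayed on stems and leaves with diluted emulsion at the stated g/ha rate, then scored at 3 weeks.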
# green foxtail [22] = test: Test Example 4: weedkilling efficacy by foliar treatment; E: green foxtail; conditions: treatment dosage 315 g/ha
# Outline: as §4
# wild oat [23] = test: Test Example 4: weedkilling efficacy by foliar treatment; G: wild oat; conditions: treatment dosage 315 g/ha
# Method: Testing of Weedkilling Efficacy by Foliar Treatment
# Sterilized diluvial soil was introduced into 21 cm long, 13 cm wide, 7 cm deep plastic boxes, and seeds of crabgrass, green foxtail, barnyard grass, wild oat, black-grass, Italian ryegrass, common wind-grass, Indian mallow, redroot pigweed, fig-leafed goosefoot, chickweed, catchweed, birds-eye speedwell, corn, soybean, rice, wheat, beet and rapeseed were each spot-sown, and covered with about 1.5 cm of soil, then the plants were grown in a greenhouse at 25 to 30° C.
# After they had grown for 14 days, emulsions of compounds of the present invention prepared according to compounding example 2 were diluted with water to give the specified dosages, and applied uniformly onto the stem and leaf parts with a small sprayer. 3 weeks after the pesticide treatment the effect on each type of plant was investigated on the basis of the assessment criteria of test example 1.
# A: barnyard grass, B: bulrush, C: oval-leafed pondweed, D: crabgrass, E: green foxtail, F: barnyard grass, G: wild oat, H: black-grass, I: Italian ryegrass, J: common wind-grass, K: Indian mallow, L: redroot pigweed, M: fig-leafed goosefoot, N: chickweed, O: catchweed, p: birds-eye speedwell, a: transplanted rice, b: directly sown rice, c: corn, d: soybean, e: wheat, f: beet, g: rapeseed
# Further, pesticide dosage (g/ha) indicates the concentration regulated such that treatment was with only the stated number of grams (g), when calculated per hectare (ha).
# black-grass [24] = test: Test Example 4: weedkilling efficacy by foliar treatment; H: black-grass; conditions: treatment dosage 315 g/ha
# Outline: as §4
# Italian ryegrass [25] = test: Test Example 4: weedkilling efficacy by foliar treatment; I: Italian ryegrass; conditions: treatment dosage 315 g/ha
# Outline: as §4
# Indian mallow [26] = test: Test Example 4: weedkilling efficacy by foliar treatment; K: Indian mallow; conditions: treatment dosage 315 g/ha
# Outline: as §4
# redroot pigweed [27] = test: Test Example 4: weedkilling efficacy by foliar treatment; L: redroot pigweed; conditions: treatment dosage 315 g/ha
# Outline: as §4
# fig-leafed goosefoot [28] = test: Test Example 4: weedkilling efficacy by foliar treatment; M: fig-leafed goosefoot; conditions: treatment dosage 315 g/ha
# Outline: as §4
# chickweed [29] = test: Test Example 4: weedkilling efficacy by foliar treatment; N: chickweed; conditions: treatment dosage 315 g/ha
# Outline: as §4
# catchweed = test: Test Example 4: weedkilling efficacy by foliar treatment; O: catchweed; conditions: treatment dosage 315 g/ha
# Outline: as §4
# directly sown rice [30] = test: Test Example 4: foliar treatment, effect on crop; b: directly sown rice; conditions: treatment dosage 315 g/ha
# Outline: as §4
# corn [31] = test: Test Example 4: foliar treatment, effect on crop; c: corn; conditions: treatment dosage 315 g/ha
# Outline: as §4
# soybean [32] = test: Test Example 4: foliar treatment, effect on crop; d: soybean; conditions: treatment dosage 315 g/ha
# Outline: as §4
# wheat [33] = test: Test Example 4: foliar treatment, effect on crop; e: wheat; conditions: treatment dosage 315 g/ha
# Outline: as §4
# beet [34] = test: Test Example 4: foliar treatment, effect on crop; f: beet; conditions: treatment dosage 315 g/ha
# Outline: as §4
compound,measurement,setting,value
CC1=C(c2ccccc2)C(=O)N(C(C)(C)C(=O)Nc2cccc(F)n2)CO1 [B-2-27],A (barnyard grass) weedkilling efficacy grade,barnyard grass [1],"5 (weed kill ratio 90% or more, (practically complete withering))"
same,B (bulrush) weedkilling efficacy grade,bulrush [2],"5 (weed kill ratio 90% or more, (practically complete withering))"
same,C (oval-leafed pondweed) weedkilling efficacy grade,oval-leafed pondweed [3],"5 (weed kill ratio 90% or more, (practically complete withering))"
same,a (transplanted rice) effect on crop grade,transplanted rice,0 (weed kill ratio 5% or less (practically no effect))
same,A (barnyard grass) weedkilling efficacy grade,barnyard grass [4],"4 (weed kill ratio 70% or more, less than 90%)"
same,B (bulrush) weedkilling efficacy grade,bulrush [5],"5 (weed kill ratio 90% or more, (practically complete withering))"
same,C (oval-leafed pondweed) weedkilling efficacy grade,oval-leafed pondweed [6],"5 (weed kill ratio 90% or more, (practically complete withering))"
same,D (crabgrass) weedkilling efficacy grade,crabgrass [7],"5 (weed kill ratio 90% or more, (practically complete withering))"
same,E (green foxtail) weedkilling efficacy grade,green foxtail [8],"5 (weed kill ratio 90% or more, (practically complete withering))"
same,G (wild oat) weedkilling efficacy grade,wild oat [9],"5 (weed kill ratio 90% or more, (practically complete withering))"
same,H (black-grass) weedkilling efficacy grade,black-grass [10],"5 (weed kill ratio 90% or more, (practically complete withering))"
same,I (Italian ryegrass) weedkilling efficacy grade,Italian ryegrass [11],"5 (weed kill ratio 90% or more, (practically complete withering))"
same,K (Indian mallow) weedkilling efficacy grade,Indian mallow [12],"5 (weed kill ratio 90% or more, (practically complete withering))"
same,L (redroot pigweed) weedkilling efficacy grade,redroot pigweed [13],"5 (weed kill ratio 90% or more, (practically complete withering))"
same,M (fig-leafed goosefoot) weedkilling efficacy grade,fig-leafed goosefoot [14],"5 (weed kill ratio 90% or more, (practically complete withering))"
same,N (chickweed) weedkilling efficacy grade,chickweed [15],"5 (weed kill ratio 90% or more, (practically complete withering))"
same,P (birds-eye speedwell) weedkilling efficacy grade,birds-eye speedwell,"5 (weed kill ratio 90% or more, (practically complete withering))"
same,b (directly sown rice) effect on crop grade,directly sown rice [16],"5 (weed kill ratio 90% or more, (practically complete withering))"
same,c (corn) effect on crop grade,corn [17],"4 (weed kill ratio 70% or more, less than 90%)"
same,d (soybean) effect on crop grade,soybean [18],"5 (weed kill ratio 90% or more, (practically complete withering))"
same,e (wheat) effect on crop grade,wheat [19],"5 (weed kill ratio 90% or more, (practically complete withering))"
same,f (beet) effect on crop grade,beet [20],"4 (weed kill ratio 70% or more, less than 90%)"
same,D (crabgrass) weedkilling efficacy grade,crabgrass [21],"5 (weed kill ratio 90% or more, (practically complete withering))"
same,E (green foxtail) weedkilling efficacy grade,green foxtail [22],"5 (weed kill ratio 90% or more, (practically complete withering))"
same,G (wild oat) weedkilling efficacy grade,wild oat [23],"5 (weed kill ratio 90% or more, (practically complete withering))"
same,H (black-grass) weedkilling efficacy grade,black-grass [24],"5 (weed kill ratio 90% or more, (practically complete withering))"
same,I (Italian ryegrass) weedkilling efficacy grade,Italian ryegrass [25],"5 (weed kill ratio 90% or more, (practically complete withering))"
same,K (Indian mallow) weedkilling efficacy grade,Indian mallow [26],"4 (weed kill ratio 70% or more, less than 90%)"
same,L (redroot pigweed) weedkilling efficacy grade,redroot pigweed [27],"4 (weed kill ratio 70% or more, less than 90%)"
same,M (fig-leafed goosefoot) weedkilling efficacy grade,fig-leafed goosefoot [28],"3 (weed kill ratio 40% or more, less than 70%)"
same,N (chickweed) weedkilling efficacy grade,chickweed [29],"4 (weed kill ratio 70% or more, less than 90%)"
same,O (catchweed) weedkilling efficacy grade,catchweed,"4 (weed kill ratio 70% or more, less than 90%)"
same,b (directly sown rice) effect on crop grade,directly sown rice [30],"5 (weed kill ratio 90% or more, (practically complete withering))"
same,c (corn) effect on crop grade,corn [31],"4 (weed kill ratio 70% or more, less than 90%)"
same,d (soybean) effect on crop grade,soybean [32],"4 (weed kill ratio 70% or more, less than 90%)"
same,e (wheat) effect on crop grade,wheat [33],"4 (weed kill ratio 70% or more, less than 90%)"
same,f (beet) effect on crop grade,beet [34],"4 (weed kill ratio 70% or more, less than 90%)"
